Data reported in paper PMC5078989, “Targeted inhibition of the COP9 signalosome for treatment of cancer” (Nature Communications, 2016).
pEC50: −log10 of the molar value.

Tested on: panel of cancer cell lines
Experiment: Cell viability (CellTiter-Glo) dose-response across cancer cell line panel;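 as to pEC50: after 72 h compound incubation with CellTiter-Glo ATP readout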
Assay type: cell-based, human
Conditions: for pEC50: Homo sapiens
Description: Next, we explored the effect of CSN5 inhibition on the viability of cancer cells. To obtain a comprehensive picture, we generated dose–response curves with a CSN5 inhibitor across more than 500 cancer cell lines in a previously described standardized setting[47] (Supplementary Data 1).
A standardized CellTiter-Glo Assay (Promega #G7570) based on the quantification of ATP was applied according to the manufacturer's protocol to measure the amount of viable cells in culture. In brief, cells were seeded into 384-well plates at optimal density for each cell line. After 4 h, compounds were added at different concentrations in growth medium and incubated for another 72 h in a humidifying chamber at 37 °C and 5% CO2. […] EC50 values were calculated from the plot of percentage of inhibition versus inhibitor concentration using the nonlinear regression analysis software Origin 7.5SR6 (OriginLab Corp.).

pEC50 (SNU-685 cells): < 4.52
pEC50 (SNU-738 cells): 4.83
pEC50 (SNU-761 cells): 4.95
pEC50 (SNU-1040 cells): 4.72
pEC50 (SNU-1079 cells): 4.88
pEC50 (SNU-C1, SNU-C1 cells): 4.75
pEC50 (SNU-C2A cells): 4.97
pEC50 (SNU-C4, SNU-C4 cells): 4.86
pEC50 (SNU-C5 cells): 5.08
pEC50 (SR-786, SR-786 cells): 4.94
pEC50 (SU-DHL10, SU-DHL-10 cells): 5.24
pEC50 (SU-DHL-4, SU-DHL-4 cells): 4.96
pEC50 (SU-DHL-5, SU-DHL-5 cells): 5.36
pEC50 (SU-DHL-6, SU-DHL-6 cells): 5.22
pEC50 (SU-DHL-8, SU-DHL-8 cells): 5.18
pEC50 (SU.86.86, SU.86.86 cells): 4.97
pEC50 (SUM44PE cells): 4.58
pEC50 (SUM52PE, SUM52PE cells): 5.47
pEC50 (SUM149PT, SUM149PT cells): 4.98
pEC50 (SUM-159-PT, SUM159PT cells): 4.95
pEC50 (SUP-T1, SUP-T1 cells): 5.00
pEC50 (SW48, SW48 cells): 4.91
pEC50 (SW480, SW480 cells): 5.02
pEC50 (SW982, SW982 cells): 4.94
pEC50 (SW1088, SW 1088 cells): 4.98
pEC50 (SW1271, SW 1271 cells): 4.73
pEC50 (SW1573, SW 1573 cells): 5.03
pEC50 (SW1783, SW 1783 cells): < 4.52
pEC50 (SW-403, SW403 cells): 4.62
pEC50 (SW-620, SW620 cells): 4.66
pEC50 (SYO-1 cells): 4.95
pEC50 (Sq-1 cells): 4.93
pEC50 (T3M4, T3M-4 cells): 4.73
pEC50 (T47D, T-47D cells): 5.13
pEC50 (TANOUE cells): 5.19
pEC50 (TC-71, TC-71 cells): 5.02
pEC50 (TCC-PAN2 cells): 4.54
pEC50 (TE-6, TE-6 cells): 4.86
pEC50 (TE-11, TE-11 cells): 4.97
pEC50 (TE-15, TE-15 cells): 4.82
pEC50 (TF-1, TF-1 cells): 5.06
pEC50 (THP-1, THP-1 cells): 5.26
pEC50 (TYK-nu cells): 4.98
pEC50 (U266B1 cells): 5.02
pEC50 (U-118-MG, U-118 MG cells): 4.60
pEC50 (U-937, U-937 cells): 5.13
pEC50 (UACC-62, UACC-62 cells): 4.86
pEC50 (UACC-257, UACC-257 cells): 4.95
pEC50 (UCH1, UCH-1 cells): 4.83
pEC50 (UKE1, UKE1 cells): 5.04
pEC50 (VM-CUB-1, VM-CUB1 cells): 5.35
pEC50 (VMRC-LCD cells): 4.96
pEC50 (VMRC-RCW cells): 4.92
pEC50 (WM 266-4, WM-266-4 cells): 4.77
pEC50 (WM983B, WM-983B cells): 5.02
pEC50 (WM-88 cells): 4.87
pEC50 (WM-115, WM-115 cells): 5.13
pEC50 (WSU-WM cells): 5.11
pEC50 (YAPC, YAPC cells): 4.94
Compound: COCc1ccccc1NCc1ccc([C@@H]2[C@H](O)CCCc3cncn32)c(-c2ccccc2Cl)c1 [CSN5i-2e, (5R,6R)-5-(2′-chloro-5-(((2-(methoxymethyl)phenyl)amino)methyl)-[1,1′-biphenyl]-2-yl)-6,7,8,9-tetrahydro-5H-imidazo[1,5-a]azepin-6-ol]
AMAX (Hs 695T cells): -86.8488
AMAX (Hs 936.T cells): -93.4541
AMAX (HuG1-N cells): -87.0263
AMAX (HuH-7 cells): -97.6516
AMAX (IGR-37 cells): -77.0355
AMAX (IGROV1 cells): -71.2355
AMAX (IPC-298 cells): -72.365
AMAX (Ishikawa cells): -88.4272
AMAX (J82 cells): -35.798
AMAX (JHH-4 cells): -90.0924
AMAX (JHOS-2 cells): -45.7705
AMAX (JHUEM-2 cells): -96.4199
AMAX (JHUEM-3 cells): -54.8666
AMAX (JL-1 cells): -68.6834
AMAX (JVM-2 cells): -97.127
AMAX (KARPAS-422 cells): -93.641
AMAX (KATO III cells): -77.3764
AMAX (KBM-7 cells): -97.1328
AMAX (KE-97 cells): -93.3813
AMAX (KMRC-1 cells): -75.0974
AMAX (KP-1N cells): -76.285
AMAX (KP-2 cells): -93.6503
AMAX (KP-3 cells): -72.8527
AMAX (KU-19-19 cells): -88.0441
AMAX (KYSE-150 cells): -68.4693
AMAX (KYSE-180 cells): -91.1186
AMAX (Kasumi3 cells): -95.9336
AMAX (L-363 cells): -92.1173
AMAX (LC2/ad cells): -70.6199
AMAX (LCLC-103H cells): -71.5681
AMAX (MFE-280 cells): -75.2715
AMAX (MM138 cells): -91.9111
AMAX (MM415 cells): -83.1051
AMAX (MM426 cells): -57.5258
AMAX (MM485 cells): -82.1717
AMAX (MM537 cells): -84.9338
AMAX (MOLT-16 cells): -96.4687
AMAX (MeWo cells): -73.0371
AMAX (NB-1 cells): -97.6901
AMAX (NCI-H82 cells): -96.2323
AMAX (NCI-H146 cells): -95.028
AMAX (NCI-H322 cells): -82.8728
AMAX (NCI-H441 cells): -78.9188
AMAX (NCI-H810 cells): -2.884
AMAX (NCI-H841 cells): -94.3751
AMAX (NCI-H1373 cells): -93.5484
AMAX (NCI-H1568 cells): -98.9282
AMAX (NCI-H1755 cells): -88.1389
AMAX (NCI-H2023 cells): -87.7102
AMAX (NCI-H2087 cells): -85.0078
AMAX (NCI-H2452 cells): -48.2134
AMAX (ONCO-DG-1 cells): -95.499
AMAX (OUMS-23 cells): -91.7164
AMAX (OV56 cells): -92.0115
AMAX (P3HR-1 cells): -92.6521
AMAX (P12-ICHIKAWA cells): -96.1728
AMAX (PA-TU-8988T cells): -59.6796
AMAX (PANC-1 cells): -78.7196
AMAX (PC-3 cells): -66.4355
AMAX (PE/CA-PJ49 cells): -89.0883
AMAX (PF-382 cells): -96.9256
AMAX (Panc 03.27 cells): -56.1495
AMAX (Panc 04.03 cells): -74.9732
AMAX (Panc 10.05 cells): -81.9961
AMAX (RD-ES cells): -95.6768
AMAX (RT-112 cells): -70.4236
AMAX (SEM cells): -91.5844
AMAX (SF-268 cells): -46.326
AMAX (SK-ES-1 cells): -87.9534
AMAX (SK-MEL-3 cells): -63.3656
